Measured values taken from the supplement of paper PMC4862054.

Each molecule was assayed on HCC1937 (assay: normalised viability (% of control), CellTiter-Blue; higher = more viable cells (about 100 = DMSO control)). Conditions: 1000 nM; incubation time: 72 h.
Method in brief: (§1)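 Seeded at 20 µl suspension per well onto compound-loaded 384-well plates, breast cancer cell lines were incubated 72 h. CellTiter-Blue fluorescence at 560/590 nm was then read, with each plate normalised to vehicle (100) and a positive kill control (0). Normalised viability is reported at a single listed concentration of the series.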
`O=C(O)CC[C@H]1CC[C@@](c2cc(F)ccc2F)(S(=O)(=O)c2ccc(Cl)cc2)CC1` [MK-0752] gave a normalised viability of 92.1%.

Same assay, conditions: 10000 nM; incubation time: 72 h
For `Nc1nc(Cl)nc2c1ncn2[C@@H]1O[C@H](CO)[C@@H](O)[C@@H]1F` [Clofarabine], the normalised viability was 26.9%.
`CCN(CC)CCOc1ccc(C(=C(Cl)c2ccccc2)c2ccccc2)cc1` [Clomifene] showed a normalised viability of 55.6%.
Work on `C[C@@H]1C[C@H]2[C@@H]3CCC4=CC(=O)C=C[C@]4(C)[C@@]3(F)[C@@H](O)C[C@]2(C)[C@@]1(O)C(=O)CO` [Dexamethasone] yielded a normalised viability of 78.9%.
`CC(C)C(=O)Nc1ccc([N+](=O)[O-])c(C(F)(F)F)c1` [Flutamide] was tested, and the normalised viability was 97%.
Work on `NC(=O)NO` [Hydroxyurea] yielded a normalised viability of 81.2%.
For `O=NN(CCCl)C(=O)NC1CCCCC1` [Lomustine], the normalised viability was 96%.

Same assay, conditions: 100000 nM; incubation time: 72 h
`NC(=O)NO` [Hydroxyurea] gave a normalised viability of 72.7%.

Each molecule was assayed on HDQ-P1 in the same assay as above. Conditions: 0.3 nM; incubation time: 72 h.
Method in brief: as §1
Molecule `COc1cc2c(Oc3ccc(NC(=O)C4(C(=O)Nc5ccc(F)cc5)CC4)cc3F)ccnc2cc1OCCCN1CCOCC1` [Foretinib] has a normalised viability of 107%.
In the case of `O=C(O)CC[C@H]1CC[C@@](c2cc(F)ccc2F)(S(=O)(=O)c2ccc(Cl)cc2)CC1` [MK-0752], the normalised viability is reported as 122%.

Same assay, conditions: 3 nM; incubation time: 72 h
Work on `Nc1nc(Cl)nc2c1ncn2[C@@H]1O[C@H](CO)[C@@H](O)[C@@H]1F` [Clofarabine] yielded a normalised viability of 105%.
Molecule `CCN(CC)CCOc1ccc(C(=C(Cl)c2ccccc2)c2ccccc2)cc1` [Clomifene] has a normalised viability of 133%.
`C[C@@H]1C[C@H]2[C@@H]3CCC4=CC(=O)C=C[C@]4(C)[C@@]3(F)[C@@H](O)C[C@]2(C)[C@@]1(O)C(=O)CO` [Dexamethasone] was tested, and the normalised viability was 111%.
`CC(C)C(=O)Nc1ccc([N+](=O)[O-])c(C(F)(F)F)c1` [Flutamide] gave a normalised viability of 109%.
Work on `COc1cc2c(Oc3ccc(NC(=O)C4(C(=O)Nc5ccc(F)cc5)CC4)cc3F)ccnc2cc1OCCCN1CCOCC1` [Foretinib] yielded a normalised viability of 99.2%.
`O=NN(CCCl)C(=O)NC1CCCCC1` [Lomustine] was tested, and the normalised viability was 117%.
`O=C(O)CC[C@H]1CC[C@@](c2cc(F)ccc2F)(S(=O)(=O)c2ccc(Cl)cc2)CC1` [MK-0752] was tested, and the normalised viability was 96.5%.

Same assay, conditions: 10 nM; incubation time: 72 h
Molecule `COc1cc2c(Oc3ccc(NC(=O)C4(C(=O)Nc5ccc(F)cc5)CC4)cc3F)ccnc2cc1OCCCN1CCOCC1` [Foretinib] has a normalised viability of 105%.
`O=C(O)CC[C@H]1CC[C@@](c2cc(F)ccc2F)(S(=O)(=O)c2ccc(Cl)cc2)CC1` [MK-0752] gave a normalised viability of 115%.

Same assay, conditions: 30 nM; incubation time: 72 h
`Nc1nc(Cl)nc2c1ncn2[C@@H]1O[C@H](CO)[C@@H](O)[C@@H]1F` [Clofarabine] showed a normalised viability of 106%.
For `CCN(CC)CCOc1ccc(C(=C(Cl)c2ccccc2)c2ccccc2)cc1` [Clomifene], the normalised viability was 130%.
Molecule `C[C@@H]1C[C@H]2[C@@H]3CCC4=CC(=O)C=C[C@]4(C)[C@@]3(F)[C@@H](O)C[C@]2(C)[C@@]1(O)C(=O)CO` [Dexamethasone] has a normalised viability of 100%.
For `CC(C)C(=O)Nc1ccc([N+](=O)[O-])c(C(F)(F)F)c1` [Flutamide], the normalised viability was 105%.
Molecule `NC(=O)NO` [Hydroxyurea] has a normalised viability of 108%.
`O=NN(CCCl)C(=O)NC1CCCCC1` [Lomustine] gave a normalised viability of 98.7%.

Same assay, conditions: 100 nM; incubation time: 72 h
`Nc1nc(Cl)nc2c1ncn2[C@@H]1O[C@H](CO)[C@@H](O)[C@@H]1F` [Clofarabine] showed a normalised viability of 88.9%.
For `CCN(CC)CCOc1ccc(C(=C(Cl)c2ccccc2)c2ccccc2)cc1` [Clomifene], the normalised viability was 114%.
For `C[C@@H]1C[C@H]2[C@@H]3CCC4=CC(=O)C=C[C@]4(C)[C@@]3(F)[C@@H](O)C[C@]2(C)[C@@]1(O)C(=O)CO` [Dexamethasone], the normalised viability was 108%.
With `CC(C)C(=O)Nc1ccc([N+](=O)[O-])c(C(F)(F)F)c1` [Flutamide] the normalised viability was 109%.
`O=NN(CCCl)C(=O)NC1CCCCC1` [Lomustine] was tested, and the normalised viability was 105%.

Same assay, conditions: 300 nM; incubation time: 72 h
For `NC(=O)NO` [Hydroxyurea], the normalised viability was 122%.

Same assay, conditions: 1000 nM; incubation time: 72 h
For `NC(=O)NO` [Hydroxyurea], the normalised viability was 111%.

What follows are molecules tested on Hs578T in the same assay as above. Conditions: 1 nM; incubation time: 72 h.
Method in brief: as §1
`COc1cc2c(Oc3ccc(NC(=O)C4(C(=O)Nc5ccc(F)cc5)CC4)cc3F)ccnc2cc1OCCCN1CCOCC1` [Foretinib] was tested, and the normalised viability was 114%.
`O=C(O)CC[C@H]1CC[C@@](c2cc(F)ccc2F)(S(=O)(=O)c2ccc(Cl)cc2)CC1` [MK-0752] gave a normalised viability of 137%.

Same assay, conditions: 10 nM; incubation time: 72 h
`Nc1nc(Cl)nc2c1ncn2[C@@H]1O[C@H](CO)[C@@H](O)[C@@H]1F` [Clofarabine] was tested, and the normalised viability was 98.1%.
In the case of `CCN(CC)CCOc1ccc(C(=C(Cl)c2ccccc2)c2ccccc2)cc1` [Clomifene], the normalised viability is reported as 105%.
In the case of `C[C@@H]1C[C@H]2[C@@H]3CCC4=CC(=O)C=C[C@]4(C)[C@@]3(F)[C@@H](O)C[C@]2(C)[C@@]1(O)C(=O)CO` [Dexamethasone], the normalised viability is reported as 120%.
Work on `CC(C)C(=O)Nc1ccc([N+](=O)[O-])c(C(F)(F)F)c1` [Flutamide] yielded a normalised viability of 96.4%.
With `O=NN(CCCl)C(=O)NC1CCCCC1` [Lomustine] the normalised viability was 105%.

Same assay, conditions: 100 nM; incubation time: 72 h
For `COc1cc2c(Oc3ccc(NC(=O)C4(C(=O)Nc5ccc(F)cc5)CC4)cc3F)ccnc2cc1OCCCN1CCOCC1` [Foretinib], the normalised viability was 106%.
With `NC(=O)NO` [Hydroxyurea] the normalised viability was 110%.
Work on `O=C(O)CC[C@H]1CC[C@@](c2cc(F)ccc2F)(S(=O)(=O)c2ccc(Cl)cc2)CC1` [MK-0752] yielded a normalised viability of 103%.

Same assay, conditions: 1000 nM; incubation time: 72 h
`Nc1nc(Cl)nc2c1ncn2[C@@H]1O[C@H](CO)[C@@H](O)[C@@H]1F` [Clofarabine] gave a normalised viability of 67.3%.
In the case of `CCN(CC)CCOc1ccc(C(=C(Cl)c2ccccc2)c2ccccc2)cc1` [Clomifene], the normalised viability is reported as 121%.
Molecule `C[C@@H]1C[C@H]2[C@@H]3CCC4=CC(=O)C=C[C@]4(C)[C@@]3(F)[C@@H](O)C[C@]2(C)[C@@]1(O)C(=O)CO` [Dexamethasone] has a normalised viability of 122%.
`CC(C)C(=O)Nc1ccc([N+](=O)[O-])c(C(F)(F)F)c1` [Flutamide] gave a normalised viability of 109%.
`COc1cc2c(Oc3ccc(NC(=O)C4(C(=O)Nc5ccc(F)cc5)CC4)cc3F)ccnc2cc1OCCCN1CCOCC1` [Foretinib] showed a normalised viability of 61%.
`O=NN(CCCl)C(=O)NC1CCCCC1` [Lomustine] showed a normalised viability of 98.1%.
`O=C(O)CC[C@H]1CC[C@@](c2cc(F)ccc2F)(S(=O)(=O)c2ccc(Cl)cc2)CC1` [MK-0752] gave a normalised viability of 113%.

Same assay, conditions: 10000 nM; incubation time: 72 h
`Nc1nc(Cl)nc2c1ncn2[C@@H]1O[C@H](CO)[C@@H](O)[C@@H]1F` [Clofarabine] was tested, and the normalised viability was 61.5%.
`CCN(CC)CCOc1ccc(C(=C(Cl)c2ccccc2)c2ccccc2)cc1` [Clomifene] was tested, and the normalised viability was 59.8%.
For `C[C@@H]1C[C@H]2[C@@H]3CCC4=CC(=O)C=C[C@]4(C)[C@@]3(F)[C@@H](O)C[C@]2(C)[C@@]1(O)C(=O)CO` [Dexamethasone], the normalised viability was 98%.
In the case of `CC(C)C(=O)Nc1ccc([N+](=O)[O-])c(C(F)(F)F)c1` [Flutamide], the normalised viability is reported as 96.7%.
In the case of `NC(=O)NO` [Hydroxyurea], the normalised viability is reported as 104%.
For `O=NN(CCCl)C(=O)NC1CCCCC1` [Lomustine], the normalised viability was 98.7%.

Same assay, conditions: 100000 nM; incubation time: 72 h
Molecule `NC(=O)NO` [Hydroxyurea] has a normalised viability of 90.3%.

The molecules below were run on MDA-MB-231 in the same assay as above. Conditions: 1 nM; incubation time: 72 h.
Method in brief: as §1
`COc1cc2c(Oc3ccc(NC(=O)C4(C(=O)Nc5ccc(F)cc5)CC4)cc3F)ccnc2cc1OCCCN1CCOCC1` [Foretinib] showed a normalised viability of 97.8%.
`O=C(O)CC[C@H]1CC[C@@](c2cc(F)ccc2F)(S(=O)(=O)c2ccc(Cl)cc2)CC1` [MK-0752] showed a normalised viability of 97.7%.
